Molecules are shown by their SMILES. Entries after “also recorded” stand apart in the source; their conditions may differ.

Assay [1] concerns human (α3)2(β4)2α3/β4 (α3β4*) nAChRs. The assay can be described thus: FLEXstation membrane potential assay in HEK cells stably expressing α3β4* nAChRs. Format: cell-based. The following applies: SR9883 0.0005–10 μM. An excerpt: (§1) Human embryonic kidney (HEK) cell lines stably expressing human (α4)2(β2)2β2/α4 (α4β2*) nAChRs, (α4)2(β2)2α5 nAChRs, (α4)2(β2)2β3 nAChRs, (α3)2(β4)2α3/β4 (α3β4*) nAChRs, (α3)2(β2)2α3/β2 (α3β2*) nAChRs, (α3)2(β4)2α5 nAChRs, or (α3)2(β2)2α5 nAChRs were maintained as described previously ([Wang et al., 2015]; [Kuryatov et al., 2005]; [Caligiuri et al., 2022]). The FLEXstation bench top scanning fluorometer from Molecular Devices was used to assay nAChR function in these cells, according to published protocols ([Wang et al., 2015]; [Kuryatov et al., 2005]). The membrane potential kit (Molecular Devices) was used according to the manufacturer’s protocols. Serial dilutions of SR9883 were manually added to the assay plate 15 min prior to recording. […] Potency and efficacy were calculated using the Hill equation as described previously ([Wang et al., 2015]).
(§2) Concentration-response curves of SR9883 actions in nAChR-expressing HEK cells and oocytes were fitted to the Hill equation using a nonlinear least squares curve fit method and efficacy and potency values were calculated as previously described ([Wang et al., 2015]). […] For the ICSS threshold experiment, percentages of baseline reward threshold scores were calculated by expressing the absolute threshold scores as a percentage of the scores obtained during baseline. […] Response latency data were analyzed in the same manner as the threshold data. […]

The target in assay [2] is T1, human (α3)2(β4)2α5 nAChRs (Homo sapiens, UniProt P30532+P30926+P32297).
T1 construct: expressed in transfected cells
The assay can be described thus: FLEXstation membrane potential assay in HEK cells stably expressing (α3)2(β4)2α5 nAChRs. The class given is cell-based. Particulars: SR9883 0.0005–10 μM.
Excerpt: as §1, §2

The subject of assay [3] is human (α3)2(β2)2α3/β2 (α3β2*) nAChRs. The assay can be described thus: FLEXstation membrane potential assay in HEK cells stably expressing α3β2* nAChRs. The class given is cell-based. Particulars: SR9883 0.0005–10 μM.
Excerpt: as §1, §2

The subject of assay [4] is Chrna5^+/+ and Chrna5^−/− mice. The assay can be described thus: Open-field locomotor activity, SR9883 alone or with nicotine. The class given is in vivo. The following applies: for Cumulative distance traveled during 60 min session: SR9883 5 or 10 mg kg^−1 IP. The procedure: Locomotor activity was assessed in an open-field apparatus (40 cm × 40 cm; Omnitech Electronics Inc.) under low illumination (~30 radiometric lux). Mice were habituated to the apparatus for 60 min on the day before treatments commenced. On test days, mice received a total of two systemic injections. First, mice were injected intraperitoneally with SR9883 (0, 5, 10 mg kg^−1) and returned to their home cages. […] Mice were then placed in the center of the apparatus and the total distance they traveled was recorded for 60 min (Fusion software, Omnitech Electronics Inc.). Concentration-response curves of SR9883 actions in nAChR-expressing HEK cells and oocytes were fitted to the Hill equation using a nonlinear least squares curve fit method and efficacy and potency values were calculated as previously described ([Wang et al., 2015]). Plasma and brain levels of SR9983 after oral administration were compared using a two-tailed paired t test. […] For the ICSS threshold experiment, percentages of baseline reward threshold scores were calculated by expressing the absolute threshold scores as a percentage of the scores obtained during baseline. The baseline values were the mean thresholds on the three sessions prior to drug injections. Response latency data were analyzed in the same manner as the threshold data. […] Effects of SR9883 on responding for food pellets in rats was analyzed by a two-tailed paired t test. […] Significant main or interaction effects in ANOVAs were followed by Bonferroni or Newman–Keuls post-hoc tests as appropriate. All statistical analyses were performed using GraphPad Prism software with α set to 0.05.

Another assay concerns male Wistar rats. The assay can be described thus: Intravenous nicotine self-administration (FR5TO20). Format: in vivo. Particulars: for Numbers of nicotine infusions earned vs vehicle: nicotine 0.03 mg kg^−1 per infusion. The method, then:
Operant chambers (Med Associates, East Fairfield, VT, United States) were used to assess responding by rats for food pellets and intravenous nicotine infusions. […] All rats were food-restricted to maintain their body weight at approximately 85% that of free-feeding weights. They were then trained to press an active lever for 45 mg food pellets on a fixed ratio 5 time-out 20 s (FR5TO20) schedule of reinforcement. […] Rats responded for food rewards until a reliable responding was achieved, defined as >90 pellets earned per 60 min session across three consecutive sessions. […] Rats were anesthetized using 1–3% isoflurane inhalation in oxygen and catheters were implanted into the left jugular vein. The catheter was passed subcutaneously to a polyethylene assembly mounted on the animals’ back. […] During the time period, responding on the active lever had no scheduled consequence.
(§3) Concentration-response curves of SR9883 actions in nAChR-expressing HEK cells and oocytes were fitted to the Hill equation using a nonlinear least squares curve fit method and efficacy and potency values were calculated as previously described ([Wang et al., 2015]). Plasma and brain levels of SR9983 after oral administration were compared using a two-tailed paired t test. […] For the ICSS threshold experiment, percentages of baseline reward threshold scores were calculated by expressing the absolute threshold scores as a percentage of the scores obtained during baseline. The baseline values were the mean thresholds on the three sessions prior to drug injections. Response latency data were analyzed in the same manner as the threshold data. […] Effects of SR9883 on responding for food pellets in rats was analyzed by a two-tailed paired t test. […] Significant main or interaction effects in ANOVAs were followed by Bonferroni or Newman–Keuls post-hoc tests as appropriate. All statistical analyses were performed using GraphPad Prism software with α set to 0.05.

The target in assay [5] is human (α4)2(β2)2β2/α4 (α4β2*) nAChRs (Homo sapiens, UniProt P17787+P43681). The assay can be described thus: FLEXstation membrane potential assay in HEK cells stably expressing α4β2* nAChRs. Format: cell-based. Also on record: expressed in transfected cells.
Excerpt: Human embryonic kidney (HEK) cell lines stably expressing human (α4)2(β2)2β2/α4 (α4β2*) nAChRs, (α4)2(β2)2α5 nAChRs, (α4)2(β2)2β3 nAChRs, (α3)2(β4)2α3/β4 (α3β4*) nAChRs, (α3)2(β2)2α3/β2 (α3β2*) nAChRs, (α3)2(β4)2α5 nAChRs, or (α3)2(β2)2α5 nAChRs were maintained as described previously ([Wang et al., 2015]; [Kuryatov et al., 2005]; [Caligiuri et al., 2022]). The FLEXstation bench top scanning fluorometer from Molecular Devices was used to assay nAChR function in these cells, according to published protocols ([Wang et al., 2015]; [Kuryatov et al., 2005]). The membrane potential kit (Molecular Devices) was used according to the manufacturer’s protocols. Serial dilutions of SR9883 were manually added to the assay plate 15 min prior to recording. […] Compound dilutions were prepared in V-shaped 96-well plates (Fisher Scientific Co.) and added to cell culture wells at a rate of 20 μL s^−1 during recording. Cells were incubated at 29°C for 6–20 h prior to assays to upregulate nAChRs ([Wang et al., 2015]; [Kuryatov et al., 2005]). Data points were averaged from 3 to 4 responses from separate wells. Potency and efficacy were calculated using the Hill equation as described previously ([Wang et al., 2015]).
as §3

Sequence of human (α4)2(β2)2β2/α4 (α4β2*) nAChRs (P43681 27-627): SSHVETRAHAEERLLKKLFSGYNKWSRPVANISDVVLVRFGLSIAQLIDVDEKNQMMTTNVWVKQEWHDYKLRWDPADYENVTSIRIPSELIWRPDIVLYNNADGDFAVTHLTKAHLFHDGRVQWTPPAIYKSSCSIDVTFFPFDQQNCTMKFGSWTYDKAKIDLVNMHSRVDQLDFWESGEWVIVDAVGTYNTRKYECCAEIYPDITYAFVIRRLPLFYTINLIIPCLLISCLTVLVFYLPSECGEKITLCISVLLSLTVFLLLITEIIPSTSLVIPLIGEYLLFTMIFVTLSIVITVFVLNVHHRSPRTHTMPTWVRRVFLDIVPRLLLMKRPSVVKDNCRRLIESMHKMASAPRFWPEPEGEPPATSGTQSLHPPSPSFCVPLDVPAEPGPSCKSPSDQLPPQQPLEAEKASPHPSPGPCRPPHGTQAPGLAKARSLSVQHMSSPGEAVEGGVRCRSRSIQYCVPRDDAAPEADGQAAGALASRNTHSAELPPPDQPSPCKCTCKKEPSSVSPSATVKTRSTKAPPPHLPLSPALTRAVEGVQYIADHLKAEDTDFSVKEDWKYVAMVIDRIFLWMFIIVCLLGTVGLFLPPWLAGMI
Sequence of human (α4)2(β2)2β2/α4 (α4β2*) nAChRs (P17787 26-502): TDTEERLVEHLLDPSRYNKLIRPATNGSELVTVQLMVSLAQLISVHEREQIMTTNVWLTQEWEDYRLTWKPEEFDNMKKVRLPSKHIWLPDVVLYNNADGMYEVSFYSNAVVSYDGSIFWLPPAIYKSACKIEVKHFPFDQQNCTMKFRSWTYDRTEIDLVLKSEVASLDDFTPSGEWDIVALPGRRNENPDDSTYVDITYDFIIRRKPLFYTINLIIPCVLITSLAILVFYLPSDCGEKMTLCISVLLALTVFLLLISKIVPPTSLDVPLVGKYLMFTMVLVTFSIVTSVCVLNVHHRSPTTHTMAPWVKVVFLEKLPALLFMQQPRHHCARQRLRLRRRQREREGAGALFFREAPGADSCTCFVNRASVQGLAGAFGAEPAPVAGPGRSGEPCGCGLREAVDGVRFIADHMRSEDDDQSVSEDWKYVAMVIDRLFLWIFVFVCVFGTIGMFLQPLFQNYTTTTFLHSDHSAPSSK
T1 sequence (P32297 32-505): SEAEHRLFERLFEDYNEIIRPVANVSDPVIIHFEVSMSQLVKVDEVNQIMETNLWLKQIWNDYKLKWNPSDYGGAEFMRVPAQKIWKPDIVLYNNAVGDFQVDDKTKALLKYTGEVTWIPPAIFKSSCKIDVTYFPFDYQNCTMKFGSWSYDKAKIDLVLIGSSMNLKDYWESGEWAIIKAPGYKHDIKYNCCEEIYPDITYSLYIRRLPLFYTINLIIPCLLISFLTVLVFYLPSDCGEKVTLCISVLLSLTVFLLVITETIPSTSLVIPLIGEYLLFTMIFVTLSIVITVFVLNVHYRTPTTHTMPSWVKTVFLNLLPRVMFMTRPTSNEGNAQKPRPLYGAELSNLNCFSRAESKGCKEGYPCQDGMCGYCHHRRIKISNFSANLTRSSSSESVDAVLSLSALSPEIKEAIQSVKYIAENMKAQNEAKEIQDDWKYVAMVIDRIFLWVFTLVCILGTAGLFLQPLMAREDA
T1 sequence (P30926 22-498): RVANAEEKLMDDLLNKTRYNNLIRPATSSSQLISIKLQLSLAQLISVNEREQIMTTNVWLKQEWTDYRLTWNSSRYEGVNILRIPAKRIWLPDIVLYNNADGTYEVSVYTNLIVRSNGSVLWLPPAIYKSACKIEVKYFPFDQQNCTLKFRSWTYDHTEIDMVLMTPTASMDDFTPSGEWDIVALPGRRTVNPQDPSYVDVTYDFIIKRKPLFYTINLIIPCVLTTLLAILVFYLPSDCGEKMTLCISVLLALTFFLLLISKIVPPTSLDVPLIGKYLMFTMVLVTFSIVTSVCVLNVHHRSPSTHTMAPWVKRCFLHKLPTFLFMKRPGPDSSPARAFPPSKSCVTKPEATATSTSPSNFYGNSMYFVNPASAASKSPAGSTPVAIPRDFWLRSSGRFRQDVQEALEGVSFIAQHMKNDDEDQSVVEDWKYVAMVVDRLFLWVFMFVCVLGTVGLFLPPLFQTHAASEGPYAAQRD
T1 sequence (P30532 23-468): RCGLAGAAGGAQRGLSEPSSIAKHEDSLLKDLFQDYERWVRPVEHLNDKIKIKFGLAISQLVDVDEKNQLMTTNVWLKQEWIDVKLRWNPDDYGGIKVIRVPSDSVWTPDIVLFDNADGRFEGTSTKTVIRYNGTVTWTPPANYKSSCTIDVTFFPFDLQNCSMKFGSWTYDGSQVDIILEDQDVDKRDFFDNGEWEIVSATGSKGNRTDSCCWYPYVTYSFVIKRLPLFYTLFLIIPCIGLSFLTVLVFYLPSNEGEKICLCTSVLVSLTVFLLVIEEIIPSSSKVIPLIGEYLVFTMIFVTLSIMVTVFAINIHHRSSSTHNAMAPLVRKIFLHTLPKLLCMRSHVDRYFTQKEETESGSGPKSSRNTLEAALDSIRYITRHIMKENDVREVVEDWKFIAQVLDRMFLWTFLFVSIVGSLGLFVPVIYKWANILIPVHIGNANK

On to `N#Cc1cccc(-n2nnc(-c3cccnc3)n2)c1` [SR9883, 3-(5-(pyridin-3-yl)-2H-tetrazol-2-yl)benzonitrile], for which the “EC50 (enhancement of response to EC20-30 nicotine)” value in assay [1], in assay [2] and in assay [3] was “no effect; also recorded: No enhancement” in each case. Also, the “Locomotor activity (total distance traveled) vs vehicle” value in assay [4] (SR9883 5 mg kg^−1, nicotine-injected Chrna5^+/+ and Chrna5^−/− mice, p = 0.0002) is listed as “reduced”; in assay [4] (SR9883 10 mg kg^−1, nicotine-injected Chrna5^+/+ and Chrna5^−/− mice, p = 0.0049), “reduced”. Also, the “Cumulative distance traveled during 60 min session” value in assay [4] (nicotine (0.25 mg kg^−1 SC)-injected Chrna5^+/+ mice, Dose x Time p = 0.0047) is listed as “decreased”; in assay [4] (nicotine (0.25 mg kg^−1 SC)-injected Chrna5^−/− mice, Dose x Time p = 0.0946, not significant) it was “tended to be decreased”; in assay [4] (saline-injected Chrna5^+/+ mice), “unchanged”; in assay [4] (saline-injected Chrna5^−/− mice), “unchanged”. Besides, the “Numbers of nicotine infusions earned vs vehicle” value is “decreased” with male Wistar rats (SR9883 5 mg kg^−1 IP, p = 0.0021) and “decreased” in the assay with male Wistar rats (SR9883 10 mg kg^−1 IP, p < 0.0001). Besides, the “Responding on the inactive lever” value with male Wistar rats (SR9883 5 and 10 mg kg^−1 IP, p = 0.1274, not significant) was “tended to be decreased”. Besides, the “Residual deficits in nicotine responding across daily sessions after treatment” value with male Wistar rats (baseline sessions prior to each SR9883 treatment) was “no residual deficits”. For the same molecule, in assay [5] (SR9883 10 μM, nicotine 0.001–50 μM), the “Effect on maximum response to nicotine” value is “no effect”. Further, the midpoint of the response in assay [5] (SR9883 0.0005–10 μM on response to EC20-30 nicotine, HEK cells, ±SEM), the EC50, lay at 381 ± 91.6 nM. The molecule also came in with a nHill in assay [5] (SR9883 0.0005–10 μM on response to EC20-30 nicotine, ±SEM) of 1.1015 ± 0.2269. In addition, in assay [5] (response to EC20-30 nicotine with SR9883 relative to nicotine alone, ±SEM), the Efficacy is 108.92 ± 7.65%.
